Assay results from PubChem BioAssay AID342 (DTP/NCI, 2004).
Values joined by “and” are separate entries in the source; they are usually repeats but may differ in a detail not shown here. Identical values can stand only once.

Test system: Swiss mice, Sarcoma 180 sc, mean tumor weight T/C
Assay: NCI In Vivo Anticancer Drug Screen. Data for tumor model Sarcoma 180 (subcutaneous) in Swiss mice
Settings: endpoint: mean tumor weight, higher = larger tumour
Procedure, shortened: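 Readout is the ratio of treated-group measurement to vehicle-control measurement (T/C), based on survival or tumor size in mice carrying transplanted tumors.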

[1] = dose: 500.0 mg/kg/injection, schedule: Q01DX007 (ip), vehicle: other

Question: How did the T/C (dose: 42.0 mg/kg/injection, schedule: Q#A X014 (ip), vehicle: methylcellulose (MC)) turn out when `NC(=O)SCC(=O)Nc1ccc2ncccc2c1` was run?
Answer: Its T/C is 84 % of control.

Question: What about the T/C (dose: 63.5 mg/kg/injection, schedule: Q#A X014 (ip), vehicle: methylcellulose (MC)) of the same molecule?
Answer: Its T/C is 76 % of control.

Question: And the T/C (dose: 93.5 mg/kg/injection, schedule: Q#A X014 (ip), vehicle: methylcellulose (MC))?
Answer: The T/C was 58 % of control.

Question: And the T/C (dose: 140.0 mg/kg/injection, schedule: Q#A X014 (ip), vehicle: methylcellulose (MC))?
Answer: The T/C was 56 % of control.

Question: What about the T/C (dose: 250.0 mg/kg/injection, schedule: Q01DX007 (ip), vehicle: other) of the same molecule?
Answer: Its T/C is 87 % of control.

Question: And the T/C [1]?
Answer: Its T/C is 46 % of control.

Question: `OCC(F)(F)C(F)(F)C(F)(F)F` was tested. Which T/C (dose: 222.0 mg/kg/injection, schedule: Q01DX007 (ip), vehicle: other) did it give?
Answer: Its T/C is 56 % of control.

Question: And the T/C (dose: 250.0 mg/kg/injection, schedule: Q01DX007 (ip), vehicle: saline)?
Answer: Its T/C is 74 % of control.

Question: And the T/C (dose: 333.0 mg/kg/injection, schedule: Q01DX007 (ip), vehicle: other)?
Answer: The T/C was 82 % of control.

Question: What about the T/C [1] of the same molecule?
Answer: Its T/C is 56 % of control.

Question: And the T/C (dose: 750.0 mg/kg/injection, schedule: Q01DX007 (ip), vehicle: other)?
Answer: The T/C was 90 % of control.

Question: How did the T/C (dose: 111.0 mg/kg/injection, schedule: Q01DX007 (sc), vehicle: steriod suspending solution) turn out when `C[C@@H]1CC2=CC(=O)C=C[C@]2(C)[C@H]2CC[C@@]3(C)[C@@H](CC[C@]3(C)O)[C@H]12` was run?
Answer: Its T/C is 61 % of control and 72 % of control.

Question: What about the T/C (dose: 167.0 mg/kg/injection, schedule: Q01DX007 (sc), vehicle: steriod suspending solution) of the same molecule?
Answer: Its T/C is 43 % of control and 62 % of control.

Question: And the T/C (dose: 250.0 mg/kg/injection, schedule: Q01DX007 (sc), vehicle: steriod suspending solution)?
Answer: Its T/C is 57 % of control and 76 % of control.

Question: And the T/C (dose: 375.0 mg/kg/injection, schedule: Q01DX007 (sc), vehicle: steriod suspending solution)?
Answer: The T/C was 38 % of control and 42 % of control and 55 % of control.

Question: And the T/C (dose: 750.0 mg/kg/injection, schedule: Q01DX007 (sc), vehicle: steriod suspending solution)?
Answer: The T/C was 47 % of control and 69 % of control.

Question: How did the T/C (dose: 6.25 mg/kg/injection, schedule: Q01DX007 (ip), vehicle: saline) turn out when `CCc1c(CC(=O)O)c2cc(C)ccc2n1Cc1ccc(Cl)cc1` was run?
Answer: Its T/C is 82 % of control.

Question: What about the T/C (dose: 12.5 mg/kg/injection, schedule: Q01DX007 (ip), vehicle: saline) of the same molecule?
Answer: The T/C was 98 % of control and 87 % of control.

Question: And the T/C (dose: 24.0 mg/kg/injection, schedule: Q01DX007 (ip), vehicle: carboxymethylcellulose (CMC))?
Answer: The T/C was 95 % of control.

Question: What about the T/C (dose: 36.0 mg/kg/injection, schedule: Q01DX007 (ip), vehicle: carboxymethylcellulose (CMC)) of the same molecule?
Answer: Its T/C is 89 % of control.

Question: What about the T/C (dose: 54.0 mg/kg/injection, schedule: Q01DX007 (ip), vehicle: carboxymethylcellulose (CMC)) of the same molecule?
Answer: The T/C was 109 % of control.

Question: And the T/C (dose: 81.0 mg/kg/injection, schedule: Q01DX007 (ip), vehicle: carboxymethylcellulose (CMC))?
Answer: Its T/C is 73 % of control.

Question: And the T/C (dose: 100.0 mg/kg/injection, schedule: Q01DX007 (ip), vehicle: saline)?
Answer: Its T/C is 64 % of control and 80 % of control.

Question: For `Nc1nc(SC2CCCCC2)c2[nH]cnc2n1`, which T/C (dose: 120.0 mg/kg/injection, schedule: Q01DX007 (ip), vehicle: carboxymethylcellulose (CMC)) is on record?
Answer: Its T/C is 89 % of control.

Question: And the T/C (dose: 240.0 mg/kg/injection, schedule: Q01DX007 (ip), vehicle: carboxymethylcellulose (CMC))?
Answer: The T/C was 33 % of control.

Question: What does the source list for `CC1=CC(O)C(O)C2(C)C1CC1OC(=O)C(O)C3C(C)C(O)C4(O)OCC13C42` (stereo unspecified)?
Answer: T/C (dose: 5.0 mg/kg/injection, schedule: Q01DX007 (sc), vehicle: olive oil, sesame oil, peanut oil): 90 % of control; T/C (dose: 10.0 mg/kg/injection, schedule: Q01DX007 (sc), vehicle: olive oil, sesame oil, peanut oil): 64 % of control; T/C (dose: 20.0 mg/kg/injection, schedule: Q01DX007 (sc), vehicle: olive oil, sesame oil, peanut oil): 96 % of control; T/C (dose: 40.0 mg/kg/injection, schedule: Q01DX007 (sc), vehicle: olive oil, sesame oil, peanut oil): 85 % of control and 86 % of control; T/C (dose: 135.0 mg/kg/injection, schedule: Q01DX007 (sc), vehicle: olive oil, sesame oil, peanut oil): 83 % of control

Question: `COc1ccc2c(c1O)-c1c(OC)c(OC)cc3c1[C@H](C2)[N+](C)(C)CC3` was tested. Which T/C (dose: 2.5 mg/kg/injection, schedule: Q01DX007 (ip), vehicle: saline) did it give?
Answer: The T/C was 108 % of control.

Question: What about the T/C (dose: 5.0 mg/kg/injection, schedule: Q01DX007 (ip), vehicle: saline) of the same molecule?
Answer: The T/C was 100 % of control.

Question: How did the T/C (dose: 42.1 mg/kg/injection, schedule: Q01DX007 (ip), vehicle: carboxymethylcellulose (CMC)) turn out when `CC(/C=N\N=C(N)N)=N/N=C(N)N` was run?
Answer: The T/C was 113 % of control.

Question: With `CS(=O)(=O)OCC#CCOS(C)(=O)=O` as the molecule, how does the T/C (dose: 10.0 mg/kg/injection, schedule: Q01DX007 (ip), vehicle: saline) read?
Answer: The T/C was 99 % of control.

Question: And the T/C (dose: 20.0 mg/kg/injection, schedule: Q01DX007 (ip), vehicle: saline)?
Answer: The T/C was 84 % of control.

Question: And the T/C (dose: 40.0 mg/kg/injection, schedule: Q01DX007 (ip), vehicle: saline)?
Answer: Its T/C is 104 % of control.
